# Assays:
# [1] = biological target: T1, Adrenergic receptor alpha-1 (Rattus norvegicus, UniProt P15823+P23944+P43140); assay: Affinity for Alpha-1 adrenergic receptor of rat cortical membranes
# T1 sequence (P15823 whole entry): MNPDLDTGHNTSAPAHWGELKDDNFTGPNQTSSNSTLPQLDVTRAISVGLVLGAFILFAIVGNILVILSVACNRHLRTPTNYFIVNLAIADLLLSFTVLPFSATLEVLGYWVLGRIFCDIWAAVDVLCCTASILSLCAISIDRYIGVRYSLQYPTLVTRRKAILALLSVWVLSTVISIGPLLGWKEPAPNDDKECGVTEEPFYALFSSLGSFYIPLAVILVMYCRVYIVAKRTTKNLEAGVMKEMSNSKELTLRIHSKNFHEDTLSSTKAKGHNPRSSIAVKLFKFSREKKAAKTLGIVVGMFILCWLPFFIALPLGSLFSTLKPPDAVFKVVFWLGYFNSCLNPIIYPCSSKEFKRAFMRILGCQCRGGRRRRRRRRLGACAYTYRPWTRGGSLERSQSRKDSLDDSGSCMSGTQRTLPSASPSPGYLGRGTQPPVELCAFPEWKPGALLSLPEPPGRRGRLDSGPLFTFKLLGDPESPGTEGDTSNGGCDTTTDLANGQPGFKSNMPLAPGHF
# T1 sequence (P23944 whole entry): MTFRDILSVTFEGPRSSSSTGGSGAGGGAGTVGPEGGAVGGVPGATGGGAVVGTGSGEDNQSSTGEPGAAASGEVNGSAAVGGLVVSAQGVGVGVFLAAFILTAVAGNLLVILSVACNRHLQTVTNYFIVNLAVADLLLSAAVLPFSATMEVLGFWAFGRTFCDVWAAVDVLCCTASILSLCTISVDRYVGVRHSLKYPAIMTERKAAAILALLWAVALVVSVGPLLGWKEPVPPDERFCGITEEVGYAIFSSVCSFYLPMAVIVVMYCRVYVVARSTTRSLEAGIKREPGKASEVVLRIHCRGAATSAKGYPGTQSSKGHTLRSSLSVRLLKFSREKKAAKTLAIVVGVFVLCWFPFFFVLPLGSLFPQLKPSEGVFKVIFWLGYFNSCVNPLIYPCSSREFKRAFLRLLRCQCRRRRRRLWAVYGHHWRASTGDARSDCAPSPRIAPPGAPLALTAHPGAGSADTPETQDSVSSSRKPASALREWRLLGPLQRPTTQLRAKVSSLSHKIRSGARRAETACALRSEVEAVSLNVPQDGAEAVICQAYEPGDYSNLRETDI
# T1 sequence (P43140 whole entry): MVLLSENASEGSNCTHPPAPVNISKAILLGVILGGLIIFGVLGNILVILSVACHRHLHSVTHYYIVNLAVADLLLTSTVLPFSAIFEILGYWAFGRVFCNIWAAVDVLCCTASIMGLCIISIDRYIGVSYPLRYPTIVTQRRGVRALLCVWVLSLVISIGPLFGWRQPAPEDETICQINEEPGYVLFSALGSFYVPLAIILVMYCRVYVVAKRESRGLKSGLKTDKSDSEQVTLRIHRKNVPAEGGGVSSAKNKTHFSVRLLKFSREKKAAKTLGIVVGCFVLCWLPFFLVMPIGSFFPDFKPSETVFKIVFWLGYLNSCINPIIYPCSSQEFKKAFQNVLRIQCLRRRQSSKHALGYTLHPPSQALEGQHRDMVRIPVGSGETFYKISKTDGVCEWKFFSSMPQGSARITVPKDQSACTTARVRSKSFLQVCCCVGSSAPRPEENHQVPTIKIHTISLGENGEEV
# [2] = biological target: T2, Adrenergic receptor alpha-2 (Rattus norvegicus, UniProt P22086+P19328+P22909); assay: Affinity for Alpha-2 adrenergic receptor of rat cortical membranes
# T2 sequence (P22086 whole entry): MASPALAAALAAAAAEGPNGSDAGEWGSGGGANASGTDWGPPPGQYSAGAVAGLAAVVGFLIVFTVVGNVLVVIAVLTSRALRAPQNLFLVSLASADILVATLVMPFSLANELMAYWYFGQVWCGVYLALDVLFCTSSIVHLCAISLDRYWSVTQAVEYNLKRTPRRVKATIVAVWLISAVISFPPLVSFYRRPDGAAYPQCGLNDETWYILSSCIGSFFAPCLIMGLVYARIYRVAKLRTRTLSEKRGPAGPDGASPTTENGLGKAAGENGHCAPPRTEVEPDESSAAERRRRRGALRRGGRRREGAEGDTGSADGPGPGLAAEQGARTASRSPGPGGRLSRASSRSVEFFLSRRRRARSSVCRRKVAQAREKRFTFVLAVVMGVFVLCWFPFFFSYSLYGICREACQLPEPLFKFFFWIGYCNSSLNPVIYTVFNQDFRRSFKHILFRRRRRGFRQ
# T2 sequence (P19328 whole entry): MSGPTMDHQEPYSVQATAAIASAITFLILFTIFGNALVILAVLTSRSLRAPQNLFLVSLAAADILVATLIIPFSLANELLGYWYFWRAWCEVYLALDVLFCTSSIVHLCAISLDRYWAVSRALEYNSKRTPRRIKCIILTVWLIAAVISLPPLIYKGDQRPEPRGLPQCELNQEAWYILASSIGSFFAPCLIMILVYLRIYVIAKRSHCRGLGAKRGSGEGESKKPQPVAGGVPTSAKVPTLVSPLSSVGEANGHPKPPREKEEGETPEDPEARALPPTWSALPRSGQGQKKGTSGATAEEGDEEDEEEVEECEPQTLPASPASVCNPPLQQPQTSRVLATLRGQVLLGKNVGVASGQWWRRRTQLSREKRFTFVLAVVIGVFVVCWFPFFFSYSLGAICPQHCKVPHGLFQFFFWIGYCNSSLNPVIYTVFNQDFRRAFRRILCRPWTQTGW
# T2 sequence (P22909 whole entry): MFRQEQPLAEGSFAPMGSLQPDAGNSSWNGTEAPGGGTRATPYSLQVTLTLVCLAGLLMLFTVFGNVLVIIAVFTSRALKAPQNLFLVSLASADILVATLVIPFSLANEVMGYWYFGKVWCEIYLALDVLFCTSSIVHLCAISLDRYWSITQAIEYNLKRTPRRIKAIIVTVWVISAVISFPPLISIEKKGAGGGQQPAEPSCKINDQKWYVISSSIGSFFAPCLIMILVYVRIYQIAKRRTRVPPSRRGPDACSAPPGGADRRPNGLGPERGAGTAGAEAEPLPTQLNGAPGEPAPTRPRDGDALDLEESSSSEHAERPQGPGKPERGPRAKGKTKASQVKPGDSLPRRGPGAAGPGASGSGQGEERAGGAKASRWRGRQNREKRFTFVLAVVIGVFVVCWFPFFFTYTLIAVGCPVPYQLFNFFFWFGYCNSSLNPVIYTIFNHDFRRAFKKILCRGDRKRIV
# [3] = biological target: 5-hydroxytryptamine receptor 7 (Rattus norvegicus, UniProt P32305); assay: Inhibition of [3H]-5-CT binding to 5-hydroxytryptamine 7 receptor of rat cortical membranes; format: cell membranes, Membrane
# 5-hydroxytryptamine receptor 7, sequence (P32305 whole entry): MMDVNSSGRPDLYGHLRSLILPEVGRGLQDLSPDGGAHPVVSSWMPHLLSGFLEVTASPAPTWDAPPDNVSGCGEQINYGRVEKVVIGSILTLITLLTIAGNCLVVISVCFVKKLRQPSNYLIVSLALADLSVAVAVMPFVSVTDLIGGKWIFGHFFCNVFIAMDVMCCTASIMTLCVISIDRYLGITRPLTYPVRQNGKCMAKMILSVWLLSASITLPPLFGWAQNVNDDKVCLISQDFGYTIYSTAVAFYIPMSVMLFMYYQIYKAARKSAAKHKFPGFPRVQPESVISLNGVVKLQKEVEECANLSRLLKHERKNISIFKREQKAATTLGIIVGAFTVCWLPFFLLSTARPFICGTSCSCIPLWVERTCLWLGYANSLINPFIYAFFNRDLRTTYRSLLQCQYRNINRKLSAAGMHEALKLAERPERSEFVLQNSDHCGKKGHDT
Structure (SMILES),Log Ki [1],Log Ki [2],Ki [3] [nM]
Cc1c(NC2=NCCN2)cccc1-c1ccsc1,-7.16,-7.96,31.6
COc1ccc(-c2cccc(NC3=NCCN3)c2C)c(OC)c1,-6.68,-7.13,40.7
Cc1cccc(-c2cccc(NC3=NCCN3)c2C)c1,-6.78,-7.75,21.4
Cc1c(NC2=NCCN2)cccc1-c1cccc(C(F)(F)F)c1,-6.59,-7.1,45.7
Cc1c(NC2=NCCN2)cccc1-c1ccccc1,-6.68,-7.71,16.2
CC(=O)c1cccc(-c2cccc(NC3=NCCN3)c2C)c1.Cl,-7.05,-7.49,155
Cc1c(NC2=NCCN2)cccc1-c1cccs1,-6.99,-8.21,16.6
COc1cccc(-c2cccc(NC3=NCCN3)c2C)c1,-7.36,-8,35.5
Cc1c(NC2=NCCN2)cccc1-c1cccc(Cl)c1,-6.88,-7.62,26.3
Cc1c(NC2=NCCN2)cccc1-c1cccc(C#N)c1.Cl,-7.04,-7.66,170
Cc1c(NC2=NCCN2)cccc1-c1cccnc1,-6.59,-8.29,257
COc1ccc(-c2cccc(NC3=NCCN3)c2C)cc1,-6.58,-7.59,27.5
Cc1c(NC2=NCCN2)cccc1-c1cccc(F)c1,-6.56,-7.58,28.2
Cc1c(NC2=NCCN2)cccc1-c1cccc(C(C)C)c1,-5.92,-6.96,182

# Source: ChEMBL document CHEMBL1136269, “Discovery of a series of (4,5-dihydroimidazol-2-yl)-biphenylamine 5-HT7 agonists” (Bioorg Med Chem Lett, 2003)
